Measurements published in patent US20250073255A1, “USE OF FA-TYPE LIPID COMPOUNDS IN PREPARATION OF NUCLEIC ACID DELIVERY REAGENT AND RELATED PRODUCT” (BEIJING BAISHIKANG PHARMACEUTICAL TECHNOLOGY (BSJPHARMA) …, priority 2021, published 2025).

Tested on: C57BL/6 male mice
Test: In vivo delivery study of lipid nucleic acid mixture (oral gavage, RT-qPCR of PGY-sRNA-26 in tissues)
Set-up: species or system mouse
Conditions: for overall delivery efficacy: delivering nucleic acids into each tissue and blood tested: 100 μg lipid:10 nmol PGY-sRNA-26, all tissues and blood tested; for oral delivery of single-stranded sRNA nucleic acids into mouse blood / oral delivery of single-stranded sRNA nucleic acids into mouse brain tissue / oral delivery of single-stranded sRNA nucleic acids into mouse femur / oral delivery of single-stranded sRNA nucleic acids into mouse heart tissue / oral delivery of single-stranded sRNA nucleic acids into mouse intestinal tissue / oral delivery of single-stranded sRNA nucleic acids into mouse kidney tissue / oral delivery of single-stranded sRNA nucleic acids into mouse liver tissue / oral delivery of single-stranded sRNA nucleic acids into mouse lung tissue / oral delivery of single-stranded sRNA nucleic acids into mouse spleen tissue / oral delivery of single-stranded sRNA nucleic acids into mouse stomach tissue / oral delivery of single-stranded sRNA nucleic acids into mouse pancreatic tissue: 100 μg lipid:10 nmol PGY-sRNA-26, sampled after 12 hours; for oral delivery of single-stranded sRNA nucleic acids into mouse heart tissue: vs free uptake group; for oral delivery of single-stranded sRNA nucleic acids into mouse intestinal tissue: intestine; for oral delivery of single-stranded sRNA nucleic acids into mouse pancreatic tissue: pancreas
Outline: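 Stem-loop RT and SYBR qPCR, normalized to U6, measured PGY-sRNA-26 in blood and organs 12 h after gavage. Dosing was 10 nmol sRNA with 100 μg lipid, pre-mixed and heated 15 min at 90 °C, in 12-h-fasted mice, against saline and free-sRNA groups.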

Row | Compound | overall delivery efficacy: delivering nucleic acids into each tissue and blood tested | oral delivery of single-stranded sRNA nucleic acids into mouse blood | oral delivery of single-stranded sRNA nucleic acids into mouse brain tissue | oral delivery of single-stranded sRNA nucleic acids into mouse femur | oral delivery of single-stranded sRNA nucleic acids into mouse heart tissue | oral delivery of single-stranded sRNA nucleic acids into mouse intestinal tissue | oral delivery of single-stranded sRNA nucleic acids into mouse kidney tissue | oral delivery of single-stranded sRNA nucleic acids into mouse liver tissue | oral delivery of single-stranded sRNA nucleic acids into mouse lung tissue | oral delivery of single-stranded sRNA nucleic acids into mouse spleen tissue | oral delivery of single-stranded sRNA nucleic acids into mouse stomach tissue | oral delivery of single-stranded sRNA nucleic acids into mouse pancreatic tissue
1 | CCCCC/C=C\C/C=C\C/C=C\C/C=C\C/C=C\CCC(=O)O [Lipid 542, (4Z,7Z,10Z,13Z,16Z)-docosa-4,7,10,13,16-pentaenoic acid] | best delivery efficacy | can effectively orally deliver | can effectively orally deliver | can effectively orally deliver | can effectively orally deliver | can effectively orally deliver | can effectively orally deliver | can effectively orally deliver | can effectively orally deliver | can effectively orally deliver | can effectively orally deliver | –
2 | CCCCCCC(=O)OC/C=C(\C)CC/C=C(\C)CCC=C(C)C [Lipid 809, [(2E,6E)-3,7,11-trimethyldodeca-2,6,10-trienyl]heptanoate] | – | can effectively orally deliver | can effectively orally deliver | can effectively orally deliver | can effectively orally deliver | can effectively orally deliver | can effectively orally deliver | can effectively orally deliver | can effectively orally deliver | can effectively orally deliver | can effectively orally deliver | can effectively orally deliver
3 | CCCCC/C=C\C/C=C\C/C=C\C/C=C\CCCCCC(=O)O [Lipid 520, (7Z,10Z,13Z,16Z)-docosa-7,10,13,16-tetraenoic acid] | – | – | can effectively orally deliver | – | can effectively orally deliver | – | – | can effectively orally deliver | can effectively orally deliver | can effectively orally deliver | – | –
4 | CC(=O)C1CCOC1=O (stereo not shown) [Lipid 612, 3-acetyloxolan-2-one] | – | – | – | can effectively orally deliver | – | can effectively orally deliver | – | can effectively orally deliver | – | – | can effectively orally deliver | –
5 | NCCCCCC(=O)NCCCCCC(=O)O [Lipid 522, 6-(6-aminohexanoylamino)hexanoic acid] | – | can effectively orally deliver | – | – | can effectively orally deliver | can effectively orally deliver | – | – | can effectively orally deliver | can effectively orally deliver | can effectively orally deliver | –
6 | CCCCCCCCCCCCCCCCCCO [Lipid 636, octadecan-1-ol] | best delivery efficacy | can effectively orally deliver | can effectively orally deliver | can effectively orally deliver | can effectively orally deliver | can effectively orally deliver | can effectively orally deliver | can effectively orally deliver | can effectively orally deliver | can effectively orally deliver | can effectively orally deliver | –
7 | CCCCCCCCCCCCCCCCCCCC(=O)O [Lipid 624, icosanoic acid] | – | – | can effectively orally deliver | can effectively orally deliver | can effectively orally deliver | can effectively orally deliver | – | can effectively orally deliver | can effectively orally deliver | – | can effectively orally deliver | –
8 | CCCCCCCCCOC(C)=O [Lipid 617, nonyl acetate] | – | can effectively orally deliver | can effectively orally deliver | can effectively orally deliver | – | can effectively orally deliver | can effectively orally deliver | can effectively orally deliver | can effectively orally deliver | can effectively orally deliver | can effectively orally deliver | –
9 | CCCCCCCCCCCCCCO [Lipid 635, tetradecan-1-ol] | best delivery efficacy | can effectively orally deliver | can effectively orally deliver | can effectively orally deliver | can effectively orally deliver | can effectively orally deliver | can effectively orally deliver | can effectively orally deliver | can effectively orally deliver | can effectively orally deliver | can effectively orally deliver | –
10 | CCCCC/C=C\C/C=C\CCCCCCCC(=O)OC(CC)C(C)CCC (stereo not shown) [Lipid 828, 4-methylheptan-3-yl (9Z,12Z)-octadeca-9,12-dienoate] | – | can effectively orally deliver | can effectively orally deliver | can effectively orally deliver | can effectively orally deliver | can effectively orally deliver | can effectively orally deliver | can effectively orally deliver | can effectively orally deliver | can effectively orally deliver | can effectively orally deliver | can effectively orally deliver
11 | CC1(O)CCCC1 [Lipid 503] | – | can effectively orally deliver | can effectively orally deliver | – | – | can effectively orally deliver | can effectively orally deliver | can effectively orally deliver | can effectively orally deliver | can effectively orally deliver | can effectively orally deliver | –
